# Measured values from ChEMBL document CHEMBL3875145, “Highly potent anti-leishmanial derivatives of hederagenin, a triperpenoid from Sapindus saponaria L” (Eur J Med Chem, 2016).
# System: Leishmania infantum
# Test: Antiparasitic activity against Leishmania infantum MHOM/BR/70/BH46 promastigotes infected in dog DH82 cells at 1000 uM after 48 hrs by ELISA method
# Type: functional
# Conditions: MHOM/BR/70/BH46, DH82, 48 h
row,Structure (SMILES),inhibition at 1000 µM
1,CC1(C)CC[C@]2(C(=O)NCc3cn(Cc4ccccc4Br)nn3)CC[C@]3(C)C(=CC[C@@H]4[C@@]5(C)CC[C@H](O)[C@@](C)(CO)[C@@H]5CC[C@]43C)[C@@H]2C1,4.2%
2,CC1(C)CC[C@]2(C(=O)NCCN3CCOCC3)CC[C@]3(C)C(=CC[C@@H]4[C@@]5(C)CC[C@H](O)[C@@](C)(CO)[C@@H]5CC[C@]43C)[C@@H]2C1,7%
3,CC1(C)CC[C@]2(C(=O)OCc3cn(Cc4cccc([N+](=O)[O-])c4)nn3)CC[C@]3(C)C(=CC[C@@H]4[C@@]5(C)CC[C@H](O)[C@@](C)(CO)[C@@H]5CC[C@]43C)[C@@H]2C1,26.3%
4,Cc1cccc(COC(=O)[C@]23CCC(C)(C)C[C@H]2C2=CC[C@@H]4[C@@]5(C)CC[C@H](O)[C@@](C)(CO)[C@@H]5CC[C@@]4(C)[C@]2(C)CC3)c1,66%
5,COC(=O)C(NC(=O)[C@]12CCC(C)(C)C[C@H]1C1=CC[C@@H]3[C@@]4(C)CC[C@H](O)[C@@](C)(CO)[C@@H]4CC[C@@]3(C)[C@]1(C)CC2)c1ccccc1 (stereo partly specified),60%
6,CC1(C)CC[C@]2(C(=O)OCc3cn(Cc4ccc(Cl)cc4)nn3)CC[C@]3(C)C(=CC[C@@H]4[C@@]5(C)CC[C@H](O)[C@@](C)(CO)[C@@H]5CC[C@]43C)[C@@H]2C1,35%
7,CC1(C)CC[C@]2(C(=O)OCc3ccccc3Br)CC[C@]3(C)C(=CC[C@@H]4[C@@]5(C)CC[C@H](O)[C@@](C)(CO)[C@@H]5CC[C@]43C)[C@@H]2C1,40%
8,CC1(C)CC[C@]2(C(=O)NCc3cn(Cc4c(F)cccc4F)nn3)CC[C@]3(C)C(=CC[C@@H]4[C@@]5(C)CC[C@H](O)[C@@](C)(CO)[C@@H]5CC[C@]43C)[C@@H]2C1,45%
9,CC1(C)CC[C@]2(C(=O)NCc3ccccc3)CC[C@]3(C)C(=CC[C@@H]4[C@@]5(C)CC[C@H](O)[C@@](C)(CO)[C@@H]5CC[C@]43C)[C@@H]2C1,8.2%
10,CC1(C)CC[C@]2(C(=O)OCc3ccc(Cl)cc3)CC[C@]3(C)C(=CC[C@@H]4[C@@]5(C)CC[C@H](O)[C@@](C)(CO)[C@@H]5CC[C@]43C)[C@@H]2C1,53%
11,CC1(C)CC[C@]2(C(=O)OCc3cn(Cc4ccccc4Br)nn3)CC[C@]3(C)C(=CC[C@@H]4[C@@]5(C)CC[C@H](O)[C@@](C)(CO)[C@@H]5CC[C@]43C)[C@@H]2C1,34.6%
12,Cc1ccc(COC(=O)[C@]23CCC(C)(C)C[C@H]2C2=CC[C@@H]4[C@@]5(C)CC[C@H](O)[C@@](C)(CO)[C@@H]5CC[C@@]4(C)[C@]2(C)CC3)cc1,44%
13,CC1(C)CC[C@]2(C(=O)NCc3cn(Cc4cccc(Br)c4)nn3)CC[C@]3(C)C(=CC[C@@H]4[C@@]5(C)CC[C@H](O)[C@@](C)(CO)[C@@H]5CC[C@]43C)[C@@H]2C1,33.3%
14,CC1(C)CC[C@]2(C(=O)NCc3cn(Cc4ccccc4)nn3)CC[C@]3(C)C(=CC[C@@H]4[C@@]5(C)CC[C@H](O)[C@@](C)(CO)[C@@H]5CC[C@]43C)[C@@H]2C1,11%
15,CC1(C)CC[C@]2(C(=O)OCc3ccccc3)CC[C@]3(C)C(=CC[C@@H]4[C@@]5(C)CC[C@H](O)[C@@](C)(CO)[C@@H]5CC[C@]43C)[C@@H]2C1,30.2%
16,CC1(C)CC[C@]2(C(=O)NCc3cn(Cc4ccc(F)cc4F)nn3)CC[C@]3(C)C(=CC[C@@H]4[C@@]5(C)CC[C@H](O)[C@@](C)(CO)[C@@H]5CC[C@]43C)[C@@H]2C1,41.8%
17,CC1(C)CC[C@]2(C(=O)OCc3cccc(Br)c3)CC[C@]3(C)C(=CC[C@@H]4[C@@]5(C)CC[C@H](O)[C@@](C)(CO)[C@@H]5CC[C@]43C)[C@@H]2C1,20%
18,CC1(C)CC[C@]2(C(=O)OCc3c(F)cccc3F)CC[C@]3(C)C(=CC[C@@H]4[C@@]5(C)CC[C@H](O)[C@@](C)(CO)[C@@H]5CC[C@]43C)[C@@H]2C1,25.2%
19,CC1(C)CC[C@]2(C(=O)OCc3ccc(F)cc3)CC[C@]3(C)C(=CC[C@@H]4[C@@]5(C)CC[C@H](O)[C@@](C)(CO)[C@@H]5CC[C@]43C)[C@@H]2C1,57%
20,CC1(C)CC[C@]2(C(=O)OCc3cn(Cc4ccccc4Cl)nn3)CC[C@]3(C)C(=CC[C@@H]4[C@@]5(C)CC[C@H](O)[C@@](C)(CO)[C@@H]5CC[C@]43C)[C@@H]2C1,0%
21,CC1(C)CC[C@]2(C(=O)OCc3cn(Cc4c(Cl)cccc4Cl)nn3)CC[C@]3(C)C(=CC[C@@H]4[C@@]5(C)CC[C@H](O)[C@@](C)(CO)[C@@H]5CC[C@]43C)[C@@H]2C1,44.5%
22,CC1(C)CC[C@]2(C(=O)OCc3cn(Cc4ccccc4)nn3)CC[C@]3(C)C(=CC[C@@H]4[C@@]5(C)CC[C@H](O)[C@@](C)(CO)[C@@H]5CC[C@]43C)[C@@H]2C1,23.5%
23,CC1(C)CC[C@]2(C(=O)OCc3cn(Cc4c(F)cccc4F)nn3)CC[C@]3(C)C(=CC[C@@H]4[C@@]5(C)CC[C@H](O)[C@@](C)(CO)[C@@H]5CC[C@]43C)[C@@H]2C1,34%

row,Structure (SMILES),inhibition at 1000 µM
1,CC1(C)CC[C@]2(C(=O)NC(Cc3c[nH]c4ccccc34)C(=O)O)CC[C@]3(C)C(=CC[C@@H]4[C@@]5(C)CC[C@H](O)[C@@](C)(CO)[C@@H]5CC[C@]43C)[C@@H]2C1 (stereo partly specified),50%
2,CC1(C)CC[C@]2(C(=O)OCc3cn(Cc4ccc(F)cc4)nn3)CC[C@]3(C)C(=CC[C@@H]4[C@@]5(C)CC[C@H](O)[C@@](C)(CO)[C@@H]5CC[C@]43C)[C@@H]2C1,33.3%
3,CC1(C)CC[C@]2(C(=O)OCc3ccccc3F)CC[C@]3(C)C(=CC[C@@H]4[C@@]5(C)CC[C@H](O)[C@@](C)(CO)[C@@H]5CC[C@]43C)[C@@H]2C1,26%
4,CC1(C)CC[C@]2(C(=O)NCc3cn(Cc4cccc([N+](=O)[O-])c4)nn3)CC[C@]3(C)C(=CC[C@@H]4[C@@]5(C)CC[C@H](O)[C@@](C)(CO)[C@@H]5CC[C@]43C)[C@@H]2C1,25.4%
5,C#CCOC(=O)[C@]12CCC(C)(C)C[C@H]1C1=CC[C@@H]3[C@@]4(C)CC[C@H](O)[C@@](C)(CO)[C@@H]4CC[C@@]3(C)[C@]1(C)CC2,19%
6,CC1(C)CC[C@]2(C(=O)NCc3cn(Cc4ccc(Br)cc4)nn3)CC[C@]3(C)C(=CC[C@@H]4[C@@]5(C)CC[C@H](O)[C@@](C)(CO)[C@@H]5CC[C@]43C)[C@@H]2C1,27%
7,CC1(C)CC[C@]2(C(=O)OCc3cn(Cc4ccccc4F)nn3)CC[C@]3(C)C(=CC[C@@H]4[C@@]5(C)CC[C@H](O)[C@@](C)(CO)[C@@H]5CC[C@]43C)[C@@H]2C1,48.3%
8,CC1(C)CC[C@]2(C(=O)NCc3cn(Cc4ccc([N+](=O)[O-])cc4)nn3)CC[C@]3(C)C(=CC[C@@H]4[C@@]5(C)CC[C@H](O)[C@@](C)(CO)[C@@H]5CC[C@]43C)[C@@H]2C1,14%
9,CC1(C)CC[C@]2(C(=O)OCc3cn(Cc4cccc(Cl)c4)nn3)CC[C@]3(C)C(=CC[C@@H]4[C@@]5(C)CC[C@H](O)[C@@](C)(CO)[C@@H]5CC[C@]43C)[C@@H]2C1,51.3%
10,C#CCNC(=O)[C@]12CCC(C)(C)C[C@H]1C1=CC[C@@H]3[C@@]4(C)CC[C@H](O)[C@@](C)(CO)[C@@H]4CC[C@@]3(C)[C@]1(C)CC2,15%
11,Cc1ccccc1COC(=O)[C@]12CCC(C)(C)C[C@H]1C1=CC[C@@H]3[C@@]4(C)CC[C@H](O)[C@@](C)(CO)[C@@H]4CC[C@@]3(C)[C@]1(C)CC2,39%
12,CC1(C)CC[C@]2(C(=O)NCc3cn(Cc4ccccc4F)nn3)CC[C@]3(C)C(=CC[C@@H]4[C@@]5(C)CC[C@H](O)[C@@](C)(CO)[C@@H]5CC[C@]43C)[C@@H]2C1,31%
13,CC1(C)CC[C@]2(C(=O)OCc3ccc(F)cc3F)CC[C@]3(C)C(=CC[C@@H]4[C@@]5(C)CC[C@H](O)[C@@](C)(CO)[C@@H]5CC[C@]43C)[C@@H]2C1,16%
14,CC1(C)CC[C@]2(C(=O)OCc3ccccc3[N+](=O)[O-])CC[C@]3(C)C(=CC[C@@H]4[C@@]5(C)CC[C@H](O)[C@@](C)(CO)[C@@H]5CC[C@]43C)[C@@H]2C1,71.7%
15,CC1(C)CC[C@]2(C(=O)NCc3cn(Cc4ccc(F)cc4)nn3)CC[C@]3(C)C(=CC[C@@H]4[C@@]5(C)CC[C@H](O)[C@@](C)(CO)[C@@H]5CC[C@]43C)[C@@H]2C1,10.2%
16,CC1(C)CC[C@]2(C(=O)OCc3cccc(Cl)c3)CC[C@]3(C)C(=CC[C@@H]4[C@@]5(C)CC[C@H](O)[C@@](C)(CO)[C@@H]5CC[C@]43C)[C@@H]2C1,23%
17,CC1(C)CC[C@]2(C(=O)NCc3cn(Cc4ccccc4Cl)nn3)CC[C@]3(C)C(=CC[C@@H]4[C@@]5(C)CC[C@H](O)[C@@](C)(CO)[C@@H]5CC[C@]43C)[C@@H]2C1,0%
18,CC1(C)CC[C@]2(C(=O)OCc3cn(Cc4ccc([N+](=O)[O-])cc4)nn3)CC[C@]3(C)C(=CC[C@@H]4[C@@]5(C)CC[C@H](O)[C@@](C)(CO)[C@@H]5CC[C@]43C)[C@@H]2C1,17%
19,CC1(C)CC[C@]2(C(=O)OCc3cn(Cc4ccc(Br)cc4)nn3)CC[C@]3(C)C(=CC[C@@H]4[C@@]5(C)CC[C@H](O)[C@@](C)(CO)[C@@H]5CC[C@]43C)[C@@H]2C1,27.7%
20,CC1(C)CC[C@]2(C(=O)NCCN3CCCCC3)CC[C@]3(C)C(=CC[C@@H]4[C@@]5(C)CC[C@H](O)[C@@](C)(CO)[C@@H]5CC[C@]43C)[C@@H]2C1,0%
21,CC1(C)CC[C@]2(C(=O)OCc3ccc([N+](=O)[O-])cc3)CC[C@]3(C)C(=CC[C@@H]4[C@@]5(C)CC[C@H](O)[C@@](C)(CO)[C@@H]5CC[C@]43C)[C@@H]2C1,28%
22,CC1(C)CC[C@]2(C(=O)NCc3cn(Cc4c(Cl)cccc4Cl)nn3)CC[C@]3(C)C(=CC[C@@H]4[C@@]5(C)CC[C@H](O)[C@@](C)(CO)[C@@H]5CC[C@]43C)[C@@H]2C1,41.7%
23,CC1(C)CC[C@]2(C(=O)NCCN3CCCC3)CC[C@]3(C)C(=CC[C@@H]4[C@@]5(C)CC[C@H](O)[C@@](C)(CO)[C@@H]5CC[C@]43C)[C@@H]2C1,0%
